Measured values reported in patent publication US9067949B2, “Benzofuro[3,2-c] pyridines and related analogs as serotonin sub-type 6 (5-HT6) modulators for the treatment of obesity, metabolic syndrome, cognition and schizophrenia” (Albany Molecular Research, Inc., priority 2011, dated 2015).
Read-outs that look alike come from different tables or passages of the source.

Columns and labels:
human 5-HT6 receptor [1] = target: T1, human 5-HT6 receptor (Homo sapiens (Human), UniProt P50406); experiment: 5-HT6 radioligand binding assay (SPA format, [N-methyl-3H]-LSD); details: human 5-HT6 receptor membranes, 10 nM [N-methyl-3H]-LSD, Ki by Cheng-Prusoff, read-out: human 5HT6 Ki
T1 sequence (P50406 whole entry): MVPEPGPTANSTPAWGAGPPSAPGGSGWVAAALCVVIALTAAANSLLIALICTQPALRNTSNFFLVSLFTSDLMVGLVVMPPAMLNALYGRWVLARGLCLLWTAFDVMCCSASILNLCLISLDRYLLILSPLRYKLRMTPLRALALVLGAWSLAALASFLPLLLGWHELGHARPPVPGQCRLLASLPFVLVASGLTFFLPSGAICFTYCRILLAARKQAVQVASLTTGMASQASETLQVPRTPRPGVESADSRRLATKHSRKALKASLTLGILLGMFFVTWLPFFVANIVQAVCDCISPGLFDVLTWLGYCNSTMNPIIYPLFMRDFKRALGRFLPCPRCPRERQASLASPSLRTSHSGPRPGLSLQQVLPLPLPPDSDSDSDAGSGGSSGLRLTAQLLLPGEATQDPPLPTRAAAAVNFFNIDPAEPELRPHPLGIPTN
Outline: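 Human 5-HT6 receptor membranes were incubated overnight at room temperature with 10 nM [N-methyl-3H]-LSD and competitor in 50 mM Tris-HCl pH 7.5, 5 mM MgCl2, 1 mM EDTA, 4% DMSO, read by SPA. Nonspecific binding was defined with 100 μM 5-HT. IC50 came from ten-point duplicate curves; Ki via Cheng-Prusoff.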

human 5-HT6 receptor [2] = target: T1, human 5-HT6 receptor; experiment: Cell-based functional assay measuring cAMP production (HTRF); details: for Emax: agonist mode, relative to 10 μM 5-HT Emax control, read-out: Emax (agonism); for functional activity at the human 5HT6 receptor: cell based assay
Protocol: Compounds were further diluted to 4× assay concentrations with serum free media containing IBMX. […] Cells were lysed by addition of HTRFTM reagents (CisBio International) and after another 30 minute incubation, the plates were read on an AnalystGT (MDS) or SynergyHT (BioTek) microplate reader. […] Antagonist activity was expressed as the ratio of cAMP produced in a test well to the average cAMP produced in the EC80 challenge control wells. Agonist activity was determined after a full 30 minutes of incubation at room temperature, using 10 μM 5-HT as the Emax control. Cells were lysed by addition of HTRFTM reagents (CisBio International) and after another 30 minute incubation, the plates were read on an AnalystGT (MDS) or SynergyHT (BioTek) microplate reader. […] Agonist activity was expressed as the ratio of cAMP produced in a test well to the average cAMP produced in the Emax control wells. All cell-based experiments were performed in duplicate using ten concentrations of test compound with 5-HT (agonist mode) or a known antagonist (antagonist mode) included as additional controls in every run. […] For antagonists, the apparent dissociation constant (Kb) was calculated using a modified Cheng-Prusoff equation: Kb=IC50/([…][…])), where A=concentration of reference agonist in the assay and E[…]=EC50 value of the reference agonist.

Row | Compound | Ki (human 5-HT6 receptor [1]) [nM] | melting point | Ki (human 5-HT6 receptor [1]; hydrochloride) [nM] | Emax (human 5-HT6 receptor [2]) [%] | functional activity at the human 5HT6 receptor (human 5-HT6 receptor [2])
1 | Cl.O=S(=O)(c1ccc2c3c(oc2c1)CC1CCC3N1)n1ccc2ccccc21 (stereo not shown) [Example 67, 3-(1H-indol-1-yl)sulfonyl-6,7,8,9,10-pentahydro-7,10-epiminocyclohepta[b]benzofuran hydrochloride] | 34 | 192 to 196 °C |  |  | 
2 | Cl.O=S(=O)(c1ccccc1)c1ccc2c3c(oc2c1)CCCNC3 [Example 68, 8-(Phenylsulfonyl)-2,3,4,5-tetrahydro-1H-benzofuro[3,2-c]azepine hydrochloride] | 132 | 221 to 225 °C |  |  | 
3 | Cl.O=S(=O)(c1ccccc1)c1ccc2oc3c(c2c1)CNCCC3 [Example 69, 9-(Phenylsulfonyl)-2,3,4,5-tetrahydro-1H-benzofuro[3,2-c]azepine hydrochloride] | 571 | 211 to 216 °C |  |  | 
4 | Cl.O=S(=O)(c1ccccc1)c1cc(Cn2cccn2)c2oc3c(c2c1)CNCC3 [Example 75, 6-((1H-pyrazol-1-yl)methyl)-8-(phenylsulfonyl)-1,2,3,4-tetrahydrobenzofuro[3,2-c]pyridine hydrochloride] | 124 | 145 to 148 °C |  |  | 
5 | Cl.O=S(=O)(c1ccccc1)c1cc(CCO)c2oc3c(c2c1)CNCC3 [Example 79, 2-(8-(phenylsulfonyl)-1,2,3,4-tetrahydrobenzofuro[3,2-c]pyridin-6-yl)ethanol hydrochloride] | 4.3 | 239 to 240 °C |  |  | 
6 | CC(O)Cc1cc(S(=O)(=O)c2ccccc2)cc2c3c(oc12)CCNC3.Cl (stereo not shown) [Example 80, 1-(8-(phenylsulfonyl)-1,2,3,4-tetrahydrobenzofuro[3,2-c]pyridin-6-yl)propan-2-ol hydrochloride] | 19 | 283 to 284 °C |  |  | 
7 | CC1(C)NCCc2oc3c(Cl)cc(S(=O)(=O)c4ccccc4)cc3c21.Cl [Example 84, 6-chloro-1,1-dimethyl-8-(phenylsulfonyl)-1,2,3,4-tetrahydrobenzofuro[3,2-c]pyridine hydrochloride] | 27 | 282 to 287 °C (dec.) |  |  | 
8 | Cl.O=S(=O)(c1ccccc1)c1cc(Cl)c2oc3c(c2c1)C(CO)NCC3 (stereo not shown) [Example 85, (6-chloro-8-(phenylsulfonyl)-1,2,3,4-tetrahydrobenzofuro[3,2-c]pyridin-1-yl)methanol hydrochloride] | 1.6 | 185 to 187 °C |  |  | 
9 | CC1CNCc2c1oc1c(Cl)cc(S(=O)(=O)c3ccccc3)cc21.Cl (stereo not shown) [Example 89, 6-chloro-4-methyl-8-(phenylsulfonyl)-1,2,3,4-tetrahydrobenzofuro[3,2-c]pyridine hydrochloride] | 110 | 291 to 292 °C (dec.) |  |  | 
10 | Cl.Clc1cc(Sc2ccccc2)cc2c3c(oc12)CCNC3 [Example 91, 6-chloro-8-(phenylthio)-1,2,3,4-tetrahydrobenzofuro[3,2-c]pyridine hydrochloride] | 12 | 241 to 248 °C (dec.) |  |  | 
11 | Cl.[O-][S+](c1ccccc1)c1cc(Cl)c2oc3c(c2c1)CNCC3 (stereo not shown) [Example 93, 6-chloro-8-(phenylsulfinyl)-1,2,3,4-tetrahydrobenzofuro[3,2-c]pyridine hydrochloride] |  | 264 to 272 °C (dec.) | 10 |  | 
12 | Cl.OC(c1ccccc1)c1cc(Cl)c2oc3c(c2c1)CNCC3 (stereo not shown) [Example 94, (6-chloro-1,2,3,4-tetrahydrobenzofuro[3,2-c]pyridin-8-yl)(phenyl)methanol hydrochloride] | 143 | 260 °C (dec.) |  |  | 
13 | CC(c1ccccc1)c1cc(Cl)c2oc3c(c2c1)CNCC3.Cl (stereo not shown) [Example 95, 6-chloro-8-(1-phenylethyl)-1,2,3,4-tetrahydrobenzofuro[3,2-c]pyridine hydrochloride] | 7.5 | 245 to 255 °C (dec.) |  |  | 
14 | COc1cc(Cc2ccccc2)cc2c3c(oc12)CCNC3.Cl [Example 96, 8-benzyl-6-methoxy-1,2,3,4-tetrahydrobenzofuro[3,2-c]pyridine hydrochloride] | 4.9 | 263 to 265 °C |  |  | 
15 | Cl.O=S(=O)(c1ccc(C(F)(F)F)cc1)c1cc(Cl)c2oc3c(c2c1)CNCC3 [Example 111] | 3.3 |  |  | 27 | weak partial agonists
16 | Cl.O=S(=O)(c1ccc(OC(F)(F)F)cc1)c1cc(Cl)c2oc3c(c2c1)CNCC3 [Example 112] | 4.9 |  |  | 19 | weak partial agonists
